Experimental findings from patent publication US9073879B2, “Oxazole derivatives useful as modulators of FAAH” (MERCK SHARP & DOHME CORP., priority 2010, dated 2015) are described below.

Each structure is given as a SMILES string.

Test [1] concerns the target T1, human FAAH (Homo sapiens, UniProt O00519).
T1 construct: The full length FAAH was subcloned into the mammalian expression vector, pcDEF.neo, using XbaI and EcoRI restriction sites; expressed in transfected cells
T1 sequence (O00519 1-579): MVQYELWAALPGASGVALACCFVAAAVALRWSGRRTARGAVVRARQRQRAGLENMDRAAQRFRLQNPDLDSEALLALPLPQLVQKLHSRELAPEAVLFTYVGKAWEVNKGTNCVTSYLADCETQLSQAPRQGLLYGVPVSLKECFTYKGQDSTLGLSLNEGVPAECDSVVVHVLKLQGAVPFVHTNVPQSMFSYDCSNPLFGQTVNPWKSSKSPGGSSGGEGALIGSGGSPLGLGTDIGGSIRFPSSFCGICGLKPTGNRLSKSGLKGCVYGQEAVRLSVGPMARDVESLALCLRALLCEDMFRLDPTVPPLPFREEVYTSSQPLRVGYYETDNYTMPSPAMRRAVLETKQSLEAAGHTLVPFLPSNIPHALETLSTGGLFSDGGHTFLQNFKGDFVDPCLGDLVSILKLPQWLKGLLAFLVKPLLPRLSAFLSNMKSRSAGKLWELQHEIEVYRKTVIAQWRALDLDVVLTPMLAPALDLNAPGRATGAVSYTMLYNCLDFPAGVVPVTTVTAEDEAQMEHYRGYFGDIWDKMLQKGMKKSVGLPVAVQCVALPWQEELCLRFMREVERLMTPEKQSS
Nature of the test: FAAH whole cell assay (human Whole cell, FAAH_CHO, AAMCA substrate). The class given is cell-based. To be noted: CHO cells expressing human FAAH, whole cell format; read-out: human cell_IC50. From the text: (§1) To assist in assay development stable cell lines for human, murine and rat full length FAAH were developed. Human FAAH cDNA (Accession No: NM_001441.1) was purchased from Origene (Rockville, Md.). The full length FAAH was subcloned into the mammalian expression vector, pcDEF.neo, using XbaI and EcoRI restriction sites and used for stable cell line generation.
Murine (accession number NM_010173) and Rat FAAH (accession number NM_024132) was amplified by reverse transcriptase polymerase chain reaction (RT-PCR) from brain cDNA (BD Biosciences, San Jose, Calif.) using primers 1 and 2 or primers 1 and 3 respectively (see Table). The resulting PCR product was ligated into pCR4 TOPO and DNA sequence confirmed. The full length murine FAAH was subcloned into the mammalian expression vector, pcDEFneo using either EcoRI (murine) or KpnI and EcoRI (rat) restriction sites. Chinese hamster ovary cells (CHO) were transfected following manufacturers protocol (AMAXA). Forty eight hours post transfection, cells were trypsinized and transferred to 96 well plates in Iscove's DMEM media supplemented with 2 mM Glutamine, 10% fetal calf serum, 1 mg/ml geneticin and HT Supplement (0.1 mM sodium hypoxanthine, 0.016 mM thymidine) in order to isolate single clones. Following selection in geneticin, individual clones were selected and FAAH activity was assessed using a whole cell fluorescent anandamide assay, modified from Ramarao et al (2005). Following removal of tissue culture media cells were dislodged following addition of Cellstripper (Mediatech, Inc. Manassas, Va.) and transferred to 96 well black clear bottom assay plate, centrifuged at 1,000 rpm for 3 mins and media removed and replaced with assay buffer (50 mM Tris pH8.0, 1 mM EDTA, 0.1% fatty acid free BSA). The reaction was initiated by addition of fluorescent substrate, AMC Arachidonoyl Amide (Cayman Chemical, Ann Arbor, Mich.) to 1 μM and reaction allowed to proceed for 2 hours at room temperature. Release of fluorescence was monitored in a CytoFluor Multiplate Reader. Cells expressing the highest amount of FAAH activity were selected for study with FAAH inhibitors.
(§2) Assays are performed on either cell lysate or microsome fractions prepared as described or in whole cell format employing either the fluorescent substrate AAMCA (Cayman chemical, Ann Arbor, Mich.) or ^3H-anandamide ([ETHANOLAMINE-1-3H] American Radiolabeled Chemicals; 1 mCi/ml). The cell lysate or microsome assay is performed in black PerkinElmer OptiPlates-384F by adding FAAH_CHO (whole cell (shown as human Whole cell or Human WC), cell lysate (shown as human lysate of human LY) or microsome) in assay buffer (50 mM Phosphate, pH 8.0, 1 mM EDTA, 200 mM KCl, 0.2% glycerol, 0.1% fatty acid free BSA) to each well, followed by either DMSO or compound and allowed to incubate at 22-25° C. for fifteen minutes. AAMCA substrate was used to achieve a final concentration of 1 μM and reaction allowed to proceed at room temperature for 1-3 hours. Fluorescent release as a measure of FAAH activity was monitored by reading the plate in an Envision plate Reader (Ex: 360/40 nM; Em: 460/40 nM). Whole cell assay is conducted with cells harvested after rinsing tissue culture flasks three times with Ca^++Mg^++ free PBS, incubating for 10 min in Enzyme free dissociation media and centrifuging for 5 minutes at 1,000 rpm in table top centrifuge. Cells are resuspended in assay buffer at desired cell number in (4×10^4 cells/assay in 96-well format; 1×10^4 cells/assay in 384-well format) and assayed as described.

In test [2] the target is T1, human FAAH. Nature of the test: FAAH cell lysate assay (human lysate, FAAH_CHO, AAMCA substrate). The format is biochemical. To be noted: lysate of CHO cells expressing human FAAH; read-out: human lysate_IC50.
Excerpt: as §1
CHO cells expressing FAAH were used to prepare either crude cell lysate or microsome fractions. To harvest cells, tissue culture media was decanted, the monolayer washed three times with Ca^++Mg^++ free PBS and cells recovered after 15 mm in enzyme free dissociation media (Millipore Corp, Billerica, Mass.). Cells were collected by centrifuging at 2000 rpm for 15 min. and the cell pellet re-suspended with 50 mM HEPES (pH 7.4) containing 1 mM EDTA and the protease inhibitors aprotinin (1 mg/ml) and leupeptin (100 μM). The suspension was sonicated at 4° C. and the cell lysate recovered after centrifuging at 12,000×g (14,600 rpm, SS34 rotor) for 20 min at 4° C. to form a crude pellet of cell debris, nuclei, peroxisomes, lysosomes, and mitochondria; the supernatant or cell lysate was used for FAAH enzyme assay. In some cases, microsomes fractions enriched in FAAH were prepared by centrifuging the cell lysate further at 27,000 rpm (100,000×g) in SW28 rotor for 50 minutes at 4° C. The pellet containing FAAH-enriched microsomes was re-suspend in 50 mM HEPES, (pH 7.4) 1 mM EDTA, and any remaining DNA sheared by passage of material through a 23 gauge needle and aliquots of enzyme were store at −80° C. prior to use.
(American Radiolabeled Chemicals; 1 mCi/ml) with FAAH (Life Sciences (1995), 56, 1999-2005 and Journal of Pharmacology and Experimented Therapeutics (1997), 283, 729-734), Analytical. Biochemistry (2003), 318:270-5. In addition, routine assays were performed monitoring hydrolysis of araehidonyl-7-amino-4-methylcoumarin amide (AAMCA) by following increase in fluorescence upon release of 7-amino 4-methyl coumarin (λEX=355 nm, (λEM=460 nm). Analytical. Biochemistry (2005). 343:143-51
as §2

On to `O[C@H]1CC[C@H](NCc2nc(-c3ccc(F)cc3)oc2Sc2ccc(Cl)cn2)CC1` [Example B5.9, trans-4-[({5-[(5-chloropyridin-2-yl)sulfanyl]-2-(4-fluorophenyl)-1,3-oxazol-4-yl}methyl)amino] cyclohexanol], for which the values for the IC50 in test [1] and in test [2] were 139 nM and 45 nM, respectively.
With `COC(=O)[C@H]1CC[C@H](NCc2nc(-c3ccc(F)cc3)oc2Sc2ccc(Cl)cn2)CC1` [Example B5.10, methyl trans-4-{({5-[(5-chloropyridin-2-yl)sulfanyl]-2-(4-fluorophenyl)-1,3-oxazol-4-yl}methyl)amino] cyclohexanecarboxylate], the IC50 amounted to 31 nM in test [1] and 12 nM in test [2].
`COC(=O)c1ccc(OC(C)c2nc(-c3ccc(F)cc3)oc2Sc2ccc(Cl)cn2)cc1` (stereo not drawn) [Example B7.1, methyl 4-(1-{5-[(5-chloropyridin-2-yl)sulfanyl]-2-(4-fluorophenyl)-1,3-oxazol-4-yl}ethoxy)benzoate]: the figures for the IC50 in test [1] and in test [2] were 39 nM and 8 nM, respectively.
Consider `CNC(=O)c1ccc(OC(C)c2nc(-c3ccc(F)cc3)oc2Sc2ccc(Cl)cn2)cc1` (stereo not drawn) [Example B7.2, 4-(1-{5-[(5-chloropyridin-2-yl)sulfanyl]-2-(4-fluorophenyl)-1,3-oxazol-4-yl}ethoxy)-N-methylbenzamide], for which the IC50 in test [1] was found to be 80 nM; in test [2], 21 nM.
Turning to `COC(=O)c1ccc(OCc2nc(C3CC3)oc2Sc2ccc(Cl)cn2)cc1` [Example D4.1, methyl 4-({5-[(5-chloropyridin-2-yl)sulfanyl]-2-cyclopropyl-1,3-oxazol-4-yl}methoxy)benzoate], the figures for the IC50 in test [1] and in test [2] were 1310 nM and 187 nM, respectively.
On the same counts, the results for `Clc1ccc(Sc2oc(C3CC3)nc2COc2ccc3[nH]ncc3c2)nc1` [Example D4.2, 5-({5-[(5-chloropyridin-2-yl)sulfanyl]-2-cyclopropyl-1,3-oxazol-4-yl}methoxy)-1H-indazole] are 979 nM and 317 nM.
